Reference: patent US20260034135A1, “USE OF N6-BENZYLAMINOPURINE AS AN APPETITE SUPPRESSANT” (THE GOVERNING COUNCIL OF THE UNIVERSITY OF TORONTO, priority 2022, published 2026)

How the values were obtained:
P2 receptors = conditions: rats, via P2 receptors, modifying intracellular calcium levels and cGMP; cited from earlier work
mHypoE-41 cell line = experiment: Gene expression by qRT-PCR in mHypoE-41 hypothalamic cell line; assay type: cell-based, mouse; conditions: 16 hr
Experimental: (§1) Hypothalamic neurons from embryonic and adult mice were previously immortalized to generate the clonal cell lines mHypoE-46, mHypoE-44, mHypoE-41, mHypoE-38, mHypoA-59, a FAC-sorted POMC/GFP mouse-derived cell line, mHypoA-POMC/GFP-2, and a mixed culture mHypoA-Bmal1-WT/F cell line (6, 13, 14). The mHypoE-46, mHypoE-44, and mHypoA-Bmal1-WT/F lines were cultured in DMEM containing 1000 mg/L glucose supplemented with 5% FBS and 1% pen/strep. The mHypoE-41, mHypoE-38, and mHypoA-59 cell lines were cultured in DMEM containing 4500 mg/L glucose supplemented with 2% FBS and 1% pen/strep. The mHypoA-POMC/GFP-2 line was cultured in DMEM containing 1000 mg/L glucose supplemented with 2% FBS and 1% pen/strep. All cells were maintained in 5% CO2 at 37° C. BAP was initially dissolved in DMSO solvent (vehicle control) to achieve 1000x the intended dose. The BAP solution was then diluted 1:1000 with the growth media used for the cell line. For co-treatment experiments, the vehicle control for ATP, UDP, and PKI was water, and for the H89 PKA inhibitor was DMSO. Neuropeptide gene expression levels were determined by qRT-PCR.
(§2) For cell culture experiments, total RNA was isolated using PureLink RNA isolation kit (Thermofisher Scientific, Burlington, ON, Canada) according to the manufacturer's instruction with on column DNase step (PureLink DNAse kit) or DNase I treatment to remove genomic DNA. For mouse experiments, total RNA was isolated using mirVana PARIS RNA and native protein isolation kit (Thermofisher Scientific). RNA quality and quantity were measured using Nanodrop 2000 and 500-1000 ng of complimentary DNA (cDNA) was synthesized with High Capacity cDNA Reverse Transcription kit (Applied biosystems, Thermofisher Scientific). Quantitative reverse transcription polymerase chain reaction (RT-qPCR) was performed with 12.5 ng of cDNA amplified with Platinum SYBR green qPCR SuperMix-UDG with ROX on an Applied Biosystems Prism 7900HT or PowerTrack Green Master Mix on an Applied Biosystems QuantStudio 5 and gene specific primers as per manufacturer's instructions (Table 1). Data was analyzed using […] and normalized to reference gene, either 60S ribosomal protein L7 (Rpl7) or Histone 3a (His).

[1] = Intraperitoneal glucose tolerance test (GTT); assay type: in vivo, CD-1 mice; conditions: male CD-1, HFD, cohort BSF
Experimental: […] The mice were then briefly fasted to determine the response to insulin or glucose. For the intraperitoneal glucose tolerance test, male mice were transferred to new clean cages and fasted for 6 hours prior to GTT. After 5 hours of fasting, the mice were weighed to determine their proper glucose dosage. The appropriate amount of 20% glucose solution was aliquoted for each mouse (2 g/kg). After 6 hours of fasting, the mice had their blood glucose measured via tail vein using a glucometer. This was recorded as the blood glucose at 0-minute timepoint. The mice were then intraperitoneal injected with their aliquoted glucose solution and returned to their cage. Blood glucose was measured via the tail vein 15, 30, 60, 90, and 120 minutes after glucose injection. Upon completion of GTT, the mice were returned to their cages with food and water and were closely monitored to ensure proper recovery.

Akt (PKB) = experiment: Akt (Ser473) phosphorylation by Western blot in mHypoE-46 after insulin re-exposure; assay type: cell-based, mouse
Experimental: mHypoE-46 cells were serum starved in 5.5 mM glucose (LG) DMEM for 1 hour prior to treatment with vehicle (0.1% DMSO), 100 µM BAP or H20, […] 5-Aminoimidazole-4-carboxamide ribonucleotide (AICAR) or 0 mM glucose DMEM. Protein was harvested using 1× cell lysis buffer (Cell Signaling Technologies, Inc, CST) containing protease and phosphatase inhibitors. A total of 30 μg protein was separated on a 12% SDS-polyacrylamide gels and transferred onto PVDF membranes. […] Protein density was quantified using ImageJ or the iBright Imaging System.
In order to determine if insulin signaling and sensitivity may be affected by BAP, we assessed the activity and expression of the key signal transduction cascade activated by insulin, the PI3K/Akt pathway. mHypoE-46 neurons were co-treated with 100 μM insulin or vehicle control and 100 μM BAP and vehicle control for 24 hours. […] The phosphorylation level of Akt (PKB), the downstream kinase in the PI3K/Akt signal transduction pathway was assessed. […]

mHypoE-44 cell line = experiment: Gene expression by qRT-PCR in mHypoE-44 hypothalamic cell line; assay type: cell-based, mouse; conditions: for effect of PKA inhibition on BAP effect on Npy expression: n=2
Experimental: as §1, §2

[2] = tested on: mHypoA-Bmal1-WT/F cell line; experiment: Gene expression by qRT-PCR in mHypoA-Bmal1-WT/F hypothalamic cell line; assay type: cell-based, mouse; conditions: 100 μM BAP, 16 hr
Experimental: as §1
as §2, with “For mouse experiments, total RNA was isolated using mirVana PARIS RNA and native protein isolation kit (Thermofisher Scientific).” left out

[3] = daily oral BAP emulsion, 27 days

c1ccc(CNc2ncnc3nc[nH]c23)cc1 [BAP, N6-benzylaminopurine]
strength of atrial muscle contractions (P2 receptors): increase the strength of atrial muscle contractions
Npy mRNA under co-treatment with ATP (mHypoE-41 cell line; 100 μM BAP + 100 μM ATP): unable to further induce Npy
Agrp mRNA expression (mHypoE-41 cell line; 100 μM BAP): increased
Npy mRNA expression (mHypoE-41 cell line; 100 μM BAP): increased
BAP dose with strongest Npy increase (mHypoE-41 cell line; dose curve, attenuated at 500 μM): 250 µM
Npy expression, dose curve (mHypoE-41 cell line; increasing concentrations of BAP): increases the expression of Npy
glucose uptake in a GTT ([1]; BAP emulsion 14 days): no change in glucose uptake
fasting blood glucose vs HFD without BAP (GTT) [1, 3]: significantly lower
glucose response in GTT [1, 3]: improved glucose response
Akt phosphorylation at Ser473 upon 15 minutes of insulin exposure (Akt (PKB); 100 μM BAP 24 hours, neurons pre-treated with vehicle alone, re-exposed to 100 nM insulin): significantly increased
induction of Akt phosphorylation by BAP under insulin-induced cellular insulin resistance (Akt (PKB); 100 μM BAP, neurons pre-treated with 100 μM insulin for 24 hours): not observed
effect of PKA inhibition on BAP effect on Npy expression (mHypoE-44 cell line; 100 μM BAP + 1 μM H89, 16 hr): unable to block the effects of BAP on Npy expression
effect of PKA inhibition on BAP effect on Npy expression (mHypoE-44 cell line; 100 μM BAP + 10 μM PKI, 16 hr): unable to block the effects of BAP on Npy expression
Npy mRNA under co-treatment with ATP (mHypoE-44 cell line; 100 μM BAP + 100 μM ATP, 16 hr): still able to overcome this induction
Npy mRNA under co-treatment with UDP (effect of UDP on BAP repression) (mHypoE-44 cell line; 100 μM BAP + 100 μM UDP, 16 hr): block the repression of Npy levels by BAP
Npy mRNA under co-treatment with UTP (effect of UTP on BAP repression) (mHypoE-44 cell line; 100 μM BAP + 100 μM UTP, 16 hr, n=2 preliminary): appears to be able to block the repression of Npy levels by BAP
Agrp mRNA expression (mHypoE-44 cell line; 100 μM BAP, 16 hr): increased
Npy mRNA expression (mHypoE-44 cell line; 100 μM BAP, 16 hr): supressed
Npy mRNA expression, time course (mHypoE-44 cell line; 100 μM BAP, at 8 and 16 hr (tested 2, 4, 8, 16, 24 hr)): significantly downregulate
BAP dose with strongest Npy decrease (mHypoE-44 cell line; dose curve, 16 hr): 500 µM
Npy expression, dose curve (mHypoE-44 cell line; increasing concentrations of BAP, 16 hr): decreases Npy in a dose dependent manner
Agrp mRNA expression [2]: increased
Npy mRNA expression [2]: supressed
Pomc expression [2]: significantly induced
